Measured values published in article PMC5309220, “Screening for Small Molecule Inhibitors of Statin-Induced APP C-terminal Toxic Fragment Production” (Frontiers in Pharmacology, 2017).
Read-outs that look alike come from different tables or passages of the source.

How the values were obtained:
[1] = test system: cerivastatin-induced APPΔC31 production in CHO-7W cells; assay: APPΔC31 ELISA validation assay, cerivastatin-induced; format: cell-based, Chinese hamster; details: 24 h; for APPΔC31 Inh. (mean %): CHO-7W cells, test concentration not given; for IC50: Cricetulus griseus, read-out: IC50 (E), APPΔC31 inhibition
Description: The APPΔC31 ELISA developed in partnership with Enzo Life Sciences (ADI-900-227) follows a standard sandwich ELISA design wherein a monoclonal N-terminal APP-specific antibody is used to coat the wells of the microtiter plate (capture antibody) and the anti-APPΔC31 cleavage site-specific polyclonal antibody serves as the detection antibody. An HRP-conjugated secondary antibody is then added and a colorimetric signal generated by enzymatic conversion of the tetramethylbenzidine (TMB) substrate. Protein levels were first determined using a colorimetric coomassie assay (Coomassie Plus, Thermo).
A subset of hits from our HTS was validated in a secondary assay. […] Thapsigargin also acts as a sarco/endoplasmic reticulum calcium ATPase (SERCA) inhibitor. Therefore, another SERCA inhibitor, 2,5-Di-tert-butylhydroquinone, was also added to the testing. In this secondary assay, CHO-7W cells were cultured as described above and plated into 24-well dishes at ∼200K/well. […] These hits were selected for their potency in primary screen, their structural features, their known activities, and availability of compound for additional testing. There were cerivastatin-only (negative control), + QVD-OPh (positive control), and for viability, vehicle-only (negative) controls. Cells were harvested by removing the media to a tube, adding […] trypsin to detach cells then neutralizing with media. […] Cells were centrifuged at 5000 rpm (2300 × g) for 5 min. Cell pellets were frozen until use. Forty μL cold RIPA buffer plus complete protease inhibitors (Roche) was added to each pellet and the pellets were reconstituted by pipetting up and down, incubating on ice for 30 min, vortexing, and centrifugation as above. Cell lysate supernatants were then assayed by APPΔC31 ELISA as described above. For most compounds, multiple/repeat studies were performed and two wells used for each condition. Statistical comparison was performed using one-way ANOVA for multiple comparisons, with a Dunnett post hoc test to compare each condition to the control. Further dose-response studies were performed on select compounds.

CHO-7W cells [2] = details: with 10 μM cerivastatin
[3] = test system: APPΔC31 production in CHO-7W cells; assay: Statin induction of APPΔC31, ELISA; format: cell-based, Chinese hamster; details: 24 h
Description: An HRP-conjugated secondary antibody is then added and a colorimetric signal generated by enzymatic conversion of the tetramethylbenzidine (TMB) substrate. Protein levels were first determined using a colorimetric coomassie assay (Coomassie Plus, Thermo).
APPΔC31 was determined in cell lysates by ELISA.

caspase 8 = details: potency stated for the inhibitor, no reference given; cited from earlier work
[4] = test system: cerivastatin-induced APPΔC31 in CHO-7W cells; assay: APPΔC31 AlphaLISA dose-response, cerivastatin-induced; format: cell-based, Chinese hamster; details: 24 h; for IC50: Cricetulus griseus
Description: The APPΔC31 AlphaLISA assay (Figures 2C–E) was run directly in the plate with the cell lysate as described above in “AlphaLISA to detect APPΔC31.” APPΔC31 levels were measured using the Envision plate reader and data were normalized to DMSO (100% APPΔC31 production) and Q-VD-OPh (MP Biomedicals) pan-caspase inhibitor at 30 μM (0%); these controls were present on each plate. In addition, some compounds of interest were further analyzed in a dose-response curve to determine IC50 values.
The broad-spectrum pan-caspase inhibitor Q-VD-OPh served as the positive control.
Lysates were prepared and APPΔC31 determined by ELISA. (B) CHO-7W cells were treated with 10 μM cerivastatin plus increasing doses of caspase and MEK inhibitors for 24 h. Lysates were prepared and APPΔC31 determined by AlphaLISA. Click here for additional data file.

[5] = PAMPA / immobilized artificial membrane (IAM.PC.DD2) chromatography; format: in vitro ADME; details: IAM.PC.DD2 column, water/methanol gradient
[6] = test system: cerivastatin-induced APPΔC31 in CHO-7W cells; assay: APPΔC31 immunoblot of CHO-7W cell lysates; format: cell-based, Chinese hamster; details: compound at 30 μM, 10 μM cerivastatin, 24 h
Description: For immunoprecipitation, approximately 300 μg cell lysate supernatants were brought to 250 μL with cold RIPA + PI buffer in microfuge tubes. One μL of 6E10 APP antibody (Covance) was added and the mixture was rotated overnight in a cold room. The next day, 25 μL of protein A/G beads (Santa Cruz Biotech) were added and the samples were rotated for 1.5 h in the cold room. The beads were then centrifuged down and washed four times with cold PBS. Forty μL 1x LDS sample buffer + DTT was added to the pellets, which were heated to 70°C for 10 min, vortexed and centrifuged. Supernatants were loaded onto Nupage 4–12% Bis-Tris gels (Life Technologies) for electrophoresis and were then transferred to 0.2 μm PVDF membrane for immunoblotting with the anti-APPΔC31 antibody.
(A) CHO-7W cells were treated with 10 μM cerivastatin (CS) along with varying concentrations of Q-VD-OPh (QVD) for 24 h. Cell lysates were prepared and immunoprecipitated with anti-APP (6E10) overnight at 4°C and then incubation with Protein A/G beads (Santa Cruz Biotech). The resulting pellets were incubated, electrophoresed using Nupage 4–12% Bis-Tris gels (Life Technologies) and the 0.2 μm PVDF membrane probed with anti-APPΔC31. (B) CHO-7W cells were treated with increasing concentrations of CS or 10 μM CS together with increasing concentrations of 3′-fluorobenzylspiperone maleate (3′-F-Sp) or 30 μM QVD for 24 h. […]

sAPPα in CHO-7W cultures = assay: sAPPα ELISA in cell media; format: cell-based, Chinese hamster; details: QVD, Sp, 3′F-Sp at 10, 30, and 30 mM, respectively (so in the source), with 10 μM cerivastatin, 24 h, vs CS alone, n = 2
Description: (§1) In an additional study (Supplementary Figure S5A), measurement of the α secretase fragment of full length (FL) APP – soluble APP alpha (sAPPα) – was performed using cell media by ELISA (IBL). Furthermore, in two studies (Supplementary Figures S5B,C), total protein levels in CHO-7W cell lysates were determined by Coomassie Plus protein assay (Pierce).
(§2) Supplementary file Data_Sheet_1.docx: FIGURE S5 Effect of lead compounds on protein concentration and sAPPα. […] (B) Total protein from lysates of CHO-7W cells treated with either 30 μM QVD or 10 μM Sp alone for 24 h was similar to the vehicle control (n = 1). (C) Total protein from CHO-7W lysates treated with 10 μM CS alone or in combination with QVD, Sp, or 3′F-Sp at the concentrations shown increased (n = 1). Statistical analysis was performed using one-way ANOVA and Dunnett post-test for comparison to the 10 μM CS control (^∗∗p < 0.001, ^∗∗∗p < 0.0001). Click here for additional data file.

CHO-7W cells [7] = assay: Total protein in CHO-7W cell lysates (Coomassie Plus); format: cell-based, Chinese hamster; details: n = 1
Description: as §1, §2

[8] = (E) ELISA, CHO-7W, cerivastatin-induced
[9] = AlphaLISA dose-response (Figure 5C), cerivastatin-stimulated

SMILES: CC(C)(C)c1cc(O)c(C(C)(C)C)cc1O [2,5-Di-tert-butylhydroquinone]
- inhibition of APPΔC31 production (in words) ([1]; CHO-7W, 10 μM cerivastatin, thapsigargin 0.033-0.3 μM, 2,5-Di-tert-butylhydroquinone 1 and 10 μM): very effective
- cell survival rescue (in words) (CHO-7W cells [2]; low concentrations (thapsigargin 0.033-0.3 μM, 2,5-Di-tert-butylhydroquinone 1 and 10 μM)): highest cell survival

SMILES: CC(C)c1c(C(=O)Nc2ccccc2)c(-c2ccccc2)c(-c2ccc(F)cc2)n1CC[C@@H](O)C[C@@H](O)CC(=O)O [Atorvastatin]
- induction of APPΔC31 (in words) ([3]; statins at 1, 5 and 10 μM): much less effective

SMILES: FC(F)(F)c1cccc(-c2csc(C3COc4ccccc4O3)n2)c1 (stereo not drawn) [Caspase Inhibitor X]
- IC50 (caspase 8): 2.7 µM
- inhibition of cerivastatin-induced APPΔC31 (in words) ([4]; highest concentration tested (30 μM), 10 μM cerivastatin, AlphaLISA): somewhat effective

SMILES: O=c1c(O)c(-c2ccc(O)cc2)oc2cc(O)cc(O)c12 [Kaempferol]
- APPΔC31 Inh. (mean %) ([1]; 10 μM cerivastatin): 65%
- IC50 [1, 8]: > 10 µM

SMILES: O=c1[nH]c2ccccc2n1C1CCN(CCCC(c2ccc(F)cc2)c2ccc(F)cc2)CC1 [Pimozide]
- APPΔC31 Inh. (mean %) ([1]; 10 μM cerivastatin): 98%
- cell survival rescue (in words) (CHO-7W cells [2]; at 30 μM, among hits from HTS): greatest cell survival rescue effects
- % Min (APPΔC31 dose-response) [4, 9]: 19%
- IC50 ([4]; (A) AlphaLISA, cerivastatin-induced, read-out: IC50 (A), APPΔC31 inhibition): 3.6 µM
- KIAM (IAM capacity factor) [5]: 3.3

SMILES: CC(C)C(NC(=O)c1ccc2ccccc2n1)C(=O)NC(CC(=O)O)C(=O)COc1c(F)cccc1F (stereo not drawn) [QVD-OPh, Q-VD-OPh]
- effect on CS-induced APPΔC31 by immunoblot (in words) [6]: eliminated the cerivastatin-induced APPΔC31 increase
- APPΔC31 Inh. (mean %) ([1]; 10 μM cerivastatin): 95%
- IC50 ([1]; ELISA, CHO-7W, 10 μM cerivastatin): 7.5 µM
- effect on sAPPα (in words) (sAPPα in CHO-7W cultures): increased sAPPα
- effect on protein concentration in lysates, compound alone (in words) (CHO-7W cells [7]; QVD alone at 30 μM, spiperone alone at 10 μM, 24 h, vs vehicle): did not lower protein concentration
- effect on total protein concentration with cerivastatin (in words) (CHO-7W cells [7]; QVD, spiperone, 3′fluorobenzylspiperone at 30, 10, and 10 μM, respectively, with 10 μM cerivastatin): increased total protein concentration
- % Min (APPΔC31 dose-response) [4, 9]: 0%
- IC50 ([4]; AlphaLISA dose-response (Figure 5C), cerivastatin-stimulated, read-out: IC50, APPΔC31 inhibition): 7.5 µM
- effect on simvastatin-induced APPΔC31 increase (in words) ([3]; 30 μM inhibitor plus 5 μM simvastatin): prevented 5 μM simvastatin-induced APPΔC31 increases

SMILES: CO[C@H]1C[C@@H]2CC[C@@H](C)[C@@](O)(O2)C(=O)C(=O)N2CCCC[C@H]2C(=O)O[C@H]([C@H](C)C[C@@H]2CC[C@@H](O)[C@H](OC)C2)CC(=O)[C@H](C)/C=C(\C)[C@@H](O)[C@@H](OC)C(=O)[C@H](C)C[C@H](C)/C=C/C=C/C=C/1C [Rapamycin]
- APPΔC31 Inh. (mean %) ([1]; 10 μM cerivastatin): 99%
- IC50 [1, 8]: > 10 µM
- cell survival rescue (in words) (CHO-7W cells [2]; at 30 μM, among hits from HTS): greatest cell survival rescue effects
